Measured values from patent publication US20260226493A1, “HERBICIDE RESISTANT PLANTS” (SYNGENTA CROP PROTECTION AG, priority 2023, published 2026).

Key:
[1] = tested on: Arabidopsis thaliana BIO3-BIO1 (BioDA) mutants; experiment: BIO3-BIO1 mutant enzyme activity in the presence of herbicide, percentage inhibition (fluorometric DAPA assay); format: biochemical
Procedure, shortened: (§1)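 Percentage inhibition compares activity at one of three herbicide concentrations against DMSO, from o-phthalaldehyde-derivatised DAPA fluorescence (ex 410, em 470 nm). Purified N-His BIO3-BIO1 variants (50 nM, E. coli-expressed) saw herbicide 10 min at 20 °C in pH 8.6 EPPS buffer, then 20 μM KAPA plus 100 μM spermidine for 75 min at 20 °C.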

[2] = biological target: T1, Arabidopsis thaliana BIO3-BIO1 (BioDA) mutants (Arabidopsis thaliana, UniProt B0F481); experiment: as above; format: biochemical
T1 construct: with the predicted N-terminal mitochondrial transit peptide removed; 6xHis-tag (N); thrombin cleavage site (N); made in house; host or cells: E. coli BL21 (DE3) bioA
Procedure, shortened: as §1

[3] = read-out: percentage inhibition

T1 sequence (B0F481 23-833, change not shown): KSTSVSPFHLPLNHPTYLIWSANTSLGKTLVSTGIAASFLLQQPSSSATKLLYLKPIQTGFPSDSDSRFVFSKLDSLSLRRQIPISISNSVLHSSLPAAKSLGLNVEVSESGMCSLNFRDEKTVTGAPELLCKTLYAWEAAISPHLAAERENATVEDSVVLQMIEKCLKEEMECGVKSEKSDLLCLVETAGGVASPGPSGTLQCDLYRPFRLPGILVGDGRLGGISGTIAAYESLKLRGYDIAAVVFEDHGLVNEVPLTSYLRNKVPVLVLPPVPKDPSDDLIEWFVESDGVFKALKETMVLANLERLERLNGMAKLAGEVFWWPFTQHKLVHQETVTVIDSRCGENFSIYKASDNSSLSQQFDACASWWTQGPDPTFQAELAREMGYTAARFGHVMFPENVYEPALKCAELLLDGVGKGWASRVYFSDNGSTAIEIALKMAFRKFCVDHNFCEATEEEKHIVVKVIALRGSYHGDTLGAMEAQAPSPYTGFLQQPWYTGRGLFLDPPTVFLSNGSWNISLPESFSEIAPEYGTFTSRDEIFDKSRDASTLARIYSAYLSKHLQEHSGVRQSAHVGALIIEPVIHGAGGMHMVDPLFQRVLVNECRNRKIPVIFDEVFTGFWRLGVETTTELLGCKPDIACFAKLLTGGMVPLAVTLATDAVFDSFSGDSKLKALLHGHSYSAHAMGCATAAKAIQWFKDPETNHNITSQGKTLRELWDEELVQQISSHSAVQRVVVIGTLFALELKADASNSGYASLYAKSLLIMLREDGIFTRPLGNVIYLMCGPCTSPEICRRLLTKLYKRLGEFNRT

`CCOC(=O)c1nn(-c2ccc3c(c2)OC(F)(F)C(F)(F)O3)c2cccc(C(C)=O)c2c1=O` [Compound A, ethyl 5-acetyl-4-oxo-1-(2,2,3,3-tetrafluoro-1,4-benzodioxin-6-yl)cinnoline-3-carboxylate] was tested, and the percentage inhibition ([1]; variant Q517M, 1 μM) was 38% and the percentage inhibition ([1]; variant W392A, 1 μM) was 53%.

For `CCn1c(-c2ccc(Cl)c(Cl)c2)c(C(=O)O)c(=O)c2cc(F)ccc21` [Compound M, 2-(3,4-dichlorophenyl)-1-ethyl-6-fluoro-4-oxo-quinoline-3-carboxylic acid], the percentage inhibition ([2]; WT (SEQ ID NO 294), 0.1 μM herbicide) was 23% and the inhibition at 0.2 µM [2, 3] was 23%.

`CCn1c(Cn2ccc(C(F)(F)F)n2)cc(=O)c(C(=O)O)c1-c1ccc(Cl)c(Cl)c1` [Compound L, 2-(3,4-dichlorophenyl)-1-ethyl-4-oxo-6-[[3-(trifluoromethyl)pyrazol-1-yl]methyl]pyridine-3-carboxylic acid] gave a percentage inhibition ([1]; variant Q517F, 0.01 μM) of 0%, a percentage inhibition ([1]; variant Q517F, 0.075 μM) of 17% and a percentage inhibition ([1]; variant Q517F, 0.5 μM) of 54%. It also gave a percentage inhibition ([1]; variant Q517H, 0.01 μM) of 0%, a percentage inhibition ([1]; variant T393V, 0.01 μM) of 9% and a percentage inhibition ([1]; variant T393V, 0.075 μM) of 19%. For the same compound, the percentage inhibition ([1]; variant T393V, 0.5 μM) was 65%, the percentage inhibition ([1]; variant T512C, 0.01 μM) was 0% and the percentage inhibition ([1]; variant T512C, 0.075 μM) was 18%. For the same compound, the percentage inhibition ([1]; variant T512C, 0.5 μM) was 69%, the percentage inhibition ([1]; variant T512D, 0.01 μM) was 24% and the percentage inhibition ([1]; variant T512D, 0.075 μM) was 23%. For the same compound, the percentage inhibition ([1]; variant T512D, 0.5 μM) was 58%, the percentage inhibition ([1]; variant T512G, 0.01 μM) was 0% and the percentage inhibition ([1]; variant T512G, 0.075 μM) was 0%. For the same compound, the percentage inhibition ([1]; variant T512G, 0.5 μM) was 20%, the percentage inhibition ([1]; variant T512I, 0.01 μM) was 2% and the percentage inhibition ([1]; variant T512I, 0.075 μM) was 15%. For the same compound, the percentage inhibition ([1]; variant T512I, 0.5 μM) was 29%, the percentage inhibition ([1]; variant T512N, 0.01 μM) was 15% and the percentage inhibition ([1]; variant T512N, 0.075 μM) was 37%. For the same compound, the percentage inhibition ([1]; variant T512N, 0.5 μM) was 76%, the percentage inhibition ([1]; variant T512Q, 0.01 μM) was 3% and the percentage inhibition ([1]; variant T512Q, 0.075 μM) was 35%. It also gave a percentage inhibition ([1]; variant T512Q, 0.5 μM) of 74%, a percentage inhibition ([1]; variant T512R, 0.01 μM) of 27% and a percentage inhibition ([1]; variant T512R, 0.075 μM) of 61%. For the same compound, the percentage inhibition ([1]; variant T512R, 0.5 μM) was 91%, the percentage inhibition ([1]; variant T512V, 0.01 μM) was 33% and the percentage inhibition ([1]; variant T512V, 0.075 μM) was 57%. It also gave a percentage inhibition ([1]; variant T512V, 0.5 μM) of 83%, a percentage inhibition ([1]; variant T512W, 0.01 μM) of 18% and a percentage inhibition ([1]; variant T512W, 0.075 μM) of 0%. It also gave a percentage inhibition ([1]; variant T512W, 0.5 μM) of 31%, a percentage inhibition ([1]; variant V354A, 0.01 μM) of 6% and a percentage inhibition ([1]; variant V354A, 0.075 μM) of 0%. For the same compound, the percentage inhibition ([1]; variant V354A, 0.5 μM) was 47%, the percentage inhibition ([1]; variant V354E, 0.01 μM) was 4% and the percentage inhibition ([1]; variant V354E, 0.075 μM) was 19%. For the same compound, the percentage inhibition ([1]; variant V354E, 0.5 μM) was 35%, the percentage inhibition ([1]; variant V354L, 0.01 μM) was 0% and the percentage inhibition ([1]; variant V354L, 0.075 μM) was 16%. The percentage inhibition ([1]; variant V354L, 0.5 μM) was 63%, the percentage inhibition ([1]; variant V354T, 0.01 μM) was 0% and the percentage inhibition ([1]; variant V354T, 0.075 μM) was 7%. The percentage inhibition ([1]; variant V354T, 0.5 μM) was 89%, the percentage inhibition ([1]; variant W391L, 0.01 μM) was 24% and the percentage inhibition ([1]; variant W391L, 0.075 μM) was 10%. The percentage inhibition ([1]; variant W391L, 0.5 μM) was 16%, the percentage inhibition ([1]; variant W391M, 0.01 μM) was 0% and the percentage inhibition ([1]; variant W391M, 0.075 μM) was 16%. The percentage inhibition ([1]; variant W391M, 0.5 μM) was 30%, the percentage inhibition ([1]; variant W392C, 0.01 μM) was 2% and the percentage inhibition ([1]; variant W392C, 0.075 μM) was 12%. For the same compound, the percentage inhibition ([1]; variant W392C, 0.5 μM) was 13%, the percentage inhibition ([1]; variant W392D, 0.01 μM) was 19% and the percentage inhibition ([1]; variant W392D, 0.075 μM) was 59%. The percentage inhibition ([1]; variant W392D, 0.5 μM) was 85%, the percentage inhibition ([1]; variant W392G, 0.01 μM) was 0% and the percentage inhibition ([1]; variant W392G, 0.075 μM) was 2%. For the same compound, the percentage inhibition ([1]; variant W392G, 0.5 μM) was 0%, the percentage inhibition ([1]; variant W392M, 0.01 μM) was 0% and the percentage inhibition ([1]; variant W392M, 0.075 μM) was 10%. The percentage inhibition ([1]; variant W392M, 0.5 μM) was 8%, the percentage inhibition ([1]; variant W392S, 0.01 μM) was 0% and the percentage inhibition ([1]; variant W392S, 0.075 μM) was 3%. For the same compound, the percentage inhibition ([1]; variant W392S, 0.5 μM) was 0%, the percentage inhibition ([1]; variant Y511C, 0.01 μM) was 0% and the percentage inhibition ([1]; variant Y511C, 0.075 μM) was 3%. It also gave a percentage inhibition ([1]; variant Y511C, 0.5 μM) of 44%, a percentage inhibition ([1]; variant Y511D, 0.01 μM) of 20% and a percentage inhibition ([1]; variant Y511D, 0.075 μM) of 29%. For the same compound, the percentage inhibition ([1]; variant Y511D, 0.5 μM) was 51%, the percentage inhibition ([1]; variant Y511E, 0.01 μM) was 0% and the percentage inhibition ([1]; variant Y511E, 0.075 μM) was 0%. The percentage inhibition ([1]; variant Y511E, 0.5 μM) was 33%, the percentage inhibition ([1]; variant Y511F, 0.01 μM) was 48% and the percentage inhibition ([1]; variant Y511F, 0.075 μM) was 65%. The percentage inhibition ([1]; variant Y511F, 0.5 μM) was 86%, the percentage inhibition ([1]; variant Y511I, 0.01 μM) was 21% and the percentage inhibition ([1]; variant Y511I, 0.075 μM) was 27%. For the same compound, the percentage inhibition ([1]; variant Y511I, 0.5 μM) was 28%, the percentage inhibition ([1]; variant Y511M, 0.01 μM) was 0% and the percentage inhibition ([1]; variant Y511M, 0.075 μM) was 27%. It also gave a percentage inhibition ([1]; variant Y511M, 0.5 μM) of 76%, a percentage inhibition ([1]; variant Y511P, 0.01 μM) of 10% and a percentage inhibition ([1]; variant Y511P, 0.075 μM) of 26%. The percentage inhibition ([1]; variant Y511P, 0.5 μM) was 63%, the percentage inhibition ([1]; variant Y511Q, 0.01 μM) was 0% and the percentage inhibition ([1]; variant Y511Q, 0.075 μM) was 6%. For the same compound, the percentage inhibition ([1]; variant Y511Q, 0.5 μM) was 28%, the percentage inhibition ([1]; variant Y511R, 0.01 μM) was 15% and the percentage inhibition ([1]; variant Y511R, 0.075 μM) was 7%. It also gave a percentage inhibition ([1]; variant Y511R, 0.5 μM) of 34%, a percentage inhibition ([1]; variant Y511V, 0.01 μM) of 0% and a percentage inhibition ([1]; variant Y511V, 0.075 μM) of 5%. The percentage inhibition ([1]; variant Y511V, 0.5 μM) was 49%, the percentage inhibition ([1]; variant Y511W, 0.01 μM) was 11% and the percentage inhibition ([1]; variant Y511W, 0.075 μM) was 22%. For the same compound, the percentage inhibition ([1]; variant Y511W, 0.5 μM) was 50%, the inhibition at 0.01 µM [2, 3] was 6% and the inhibition at 0.075 µM [2, 3] was 44%. For the same compound, the inhibition at 0.5 µM [2, 3] was 83%.
